The target of the assay is T1, Caspase-1 (Homo sapiens) (UniProt P29466).
T1 sequence (whole entry): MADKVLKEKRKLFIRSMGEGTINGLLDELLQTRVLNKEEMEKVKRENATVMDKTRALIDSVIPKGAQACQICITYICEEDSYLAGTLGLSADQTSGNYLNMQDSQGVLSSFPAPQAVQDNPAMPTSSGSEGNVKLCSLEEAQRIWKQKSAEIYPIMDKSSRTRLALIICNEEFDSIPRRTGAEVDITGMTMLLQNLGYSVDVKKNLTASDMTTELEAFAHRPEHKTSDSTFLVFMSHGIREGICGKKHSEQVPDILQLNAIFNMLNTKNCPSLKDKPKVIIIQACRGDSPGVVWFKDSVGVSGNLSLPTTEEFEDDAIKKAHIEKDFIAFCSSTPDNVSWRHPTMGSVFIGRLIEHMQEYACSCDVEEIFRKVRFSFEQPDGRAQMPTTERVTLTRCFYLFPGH
In words: Inhibition constant against interleukin-1-beta converting enzyme.
Turning to `CC(C)[C@H](NC(=O)OCc1ccccc1)C(=O)N1CC[C@H]1C(=O)N[C@@H](CC(=O)O)C(=O)COc1cc(C(F)(F)F)nn1-c1ccccc1`, the K obs / 1 came out at 46200 M⁻¹ s⁻¹.

In the case of `CC(C)[C@@H](C(=O)N[C@@H](C)C(=O)N[C@@H](CC(=O)O)C(=O)COc1cc(C(F)(F)F)nn1-c1ccccc1)N(C)C(=O)OCc1ccccc1`, the K obs / 1 was determined as 8600 M⁻¹ s⁻¹.

The compound `CC(C)[C@H](NC(=O)OCc1ccccc1)C(=O)N1CCC[C@H]1C(=O)N[C@@H](CC(=O)O)C(=O)COc1cc(C(F)(F)F)nn1-c1ccccc1` returned a K obs / 1 of 116000 M⁻¹ s⁻¹.

On to `CC(C)[C@H](NC(=O)OCc1ccccc1)C(=O)N(C)[C@@H](C)C(=O)N[C@@H](CC(=O)O)C(=O)COc1cc(C(F)(F)F)nn1-c1ccccc1`, for which the K obs / 1 was determined as 233000 M⁻¹ s⁻¹.

Regarding `O=C(O)C[C@H](NC(=O)OCc1ccccc1)C(=O)COc1cc(C(F)(F)F)nn1-c1ccccc1`, the K obs / 1 amounted to 11000 M⁻¹ s⁻¹.

As for `CC(C)[C@H](NC(=O)OCc1ccccc1)C(=O)N[C@@H](CC(=O)O)C(=O)COc1cc(C(F)(F)F)nn1-c1ccccc1`, the K obs / 1 was determined as 20000 M⁻¹ s⁻¹.

With `CC(C)[C@H](NC(=O)OCc1ccccc1)C(=O)N[C@@H](C)C(=O)N(C)[C@@H](CC(=O)O)C(=O)COc1cc(C(F)(F)F)nn1-c1ccccc1`, the K obs / 1 was under 300 M⁻¹ s⁻¹.

The record behind these values is ChEMBL document CHEMBL1127733, “Aspartyl alpha-((1-phenyl-3-(trifluoromethyl)-pyrazol-5-yl)oxy)methyl ketones as interleukin-1 beta converting enzyme inhibitors. Significance of the P1 and P3 amido nitrogens for enzyme-peptide inhibitor binding” (J Med Chem, 1994).
